Data on twelve molecules can be found in patent US20090318479A1, “SUBSTITUTED RING FUSED AZINES AND THEIR USE IN CANCER THERAPY” (Auckland Uniservices Limited, priority 2006, published 2009).

The test system of data set [1] is NZOV11 human ovarian cell line. Put plainly: restoration of p53 function: G1-phase arrest after irradiation plus paclitaxel, flow cytometry. Type of data set: cell-based. Particulars: 9 Gray plus 200 nM paclitaxel, 24 hours; for AC50: NZOV11, p53 mutated at position 248, G1 proportion restored to (a+b)/2, read-out: AC-50% (concentration of drug that restores the G1-phase proportion of the cultured cells); for Activity: NZOV11, p53 mutated at position 248 (arginine to glutamine). From the text: Description of the in vitro assay: This protocol employs a novel assay that was used to measure the restoration of one of the principal p53 functions, that of regulating entry into S-phase (DNA replication) of the cell division cycle. Without being bound to any specific understanding, it is thought that these compounds may act to restore the known ability of p53 to induce cell cycle arrest in the G1-phase of the cell division cycle through induction of the p21^WAF1 protein in response to DNA damage (Levine. Cell 1997, 88, 323-31). Logarithmic phase cultures of tumour cell lines are irradiated in the presence of an inhibitor of cell division (to prevent the generation of G1-phase cells by cell division), and then allowed to grow for approximately one cell division time. If p53 function is present it will inhibit the progression of cells from the G1-phase to the S-phase of the cell division cycle, as a consequence of induction of the p21^WAF1 protein. If p53 function is absent there will be little or no cells in the G1-phase of the cell division cycle at the end of the incubation. […] The ability of an individual drug to restore p53 function is therefore evaluated against a positive control of non-irradiated cells and a negative control of cells that have been treated with a combination of radiation and a mitotic inhibitor.
Logarithmic phase cultures of tumour cell lines are plated in insulin-transferrin-selenite growth medium on 100 mm plates (10 ml) at a density of 10^4 cells/ml, using the standard cell culture conditions that are established in this laboratory (Marshall et al., Oncol Res 1994, 5, 301-9). The test compound is added to some cultures at a range of concentrations up to 20 μM. The anticancer drug paclitaxel is used as an inhibitor of cell division and is added to some cultures at a concentration of 200 nM. Cultures are irradiated where indicated at a dose of 9 Gray. Following irradiation, cultures are incubated at 37° C. for 24 hours, the cells harvested, washed once and fixed overnight in 100% methanol at −20° C. at a density of 5×10^5 cells/ml. Cells are rehydrated by washing in phosphate buffered saline with 2% foetal bovine serum, then incubated with RNAase A (0.25 mg/ml) at 37° C. for 30 min. Cells are then washed and resuspended in phosphate buffered saline containing 0.1 mM EDTA and 25 μg/ml propidium iodide. Cycle analysis (red fluorescence) is performed using a Becton Dickinson (Mountain View, Calif.) FACScan flow cytometer. Cellular DNA content profiles are analyzed using Modfit software (Verity Software House, Inc.) to provide estimates of the proportions of G1-, S- and G2/M-phase cells, and of other cellular material. By comparing the effects of irradiation and addition of paclitaxel separately, the assay provides evidence of non-specific inhibition of cell growth from changes in cell number, cell cycle distribution, and production of cellular debris.
Using cell cultures that have been both irradiated and treated with paclitaxel, the proportion of cells in G1-phase is plotted against the concentration of added test compound. Depending on the cell line, the proportion of G1-phase cells in the absence of added compound is generally less than 5% (defined as a). […] The 50%-activating concentration (AC-50%) of the test compound is defined as the concentration that restores the G1-phase proportion of the cultured cells to a value of (a+b)/2.
The NZOV11 human ovarian cell line, previously developed in this laboratory according to methods that have previously been published (Baguley B C et al., Eur J Cancer 1998, 34, 1086), was used in these studies to compare the activity of each of the drugs.

Data set [2] concerns other cell lines with mutations in other parts of the p53 protein. Put plainly: restoration of p53 function in other cell lines with other p53 mutations. It counts as cell-based. Particulars: a number of other cell lines with mutations in other parts of the p53 protein.
The next data set concerns C57Bl mice. Put plainly: maximum tolerated intraperitoneal single dose and signs of toxicity in mice. Type of data set: in vivo. The method, then: (§1) Pharmacological studies in mice: A further consideration in this project is whether effective plasma concentrations can be achieved in vivo without significant side-effects. C57Bl mice were maintained under standard conditions in accordance with institutional ethical guidelines. The maximum tolerated intraperitoneal single dose of compound 3 was determined by administering different doses of drug to mice and found to be 100 mg/kg. […] An effective analytical procedure for the determination of concentrations of 3 in mouse plasma was developed, using high performance liquid chromatography and detection by ion trap mass spectrometry. The method is broadly applicable to compounds in the series. Blood samples were obtained under terminal anesthesia either before or at 1, 2 and 4 hours after a single intraperitoneal dose of 100 mg/kg. Plasma was prepared and analyzed using the method developed above.

A short description of data set [3]: plasma concentrations after a single intraperitoneal dose. Type of data set: in vivo. Particulars: C57Bl mice, single intraperitoneal 100 mg/kg, 1, 2 and 4 hours, FIG. 1. The protocol:
Illustrates the in vivo plasma concentrations of compound 3 over time following a single intraperitoneal administration (100 mg/kg) to C57Bl mice.
as §1

Data set [4] deals with NZM4 human tumour xenografts. Put plainly: growth of NZM4 human tumour xenografts in immunodeficient (rag 1) mice. Type of data set: in vivo. The method, then: Illustrates the growth curves for immunodeficient mice with NZM4 human tumour xenografts. Mice were either untreated (closed circles), treated with 2 Gray radiation alone (open circles) or treated with radiation combined with compound 3 (100 mg/kg per dose).
In vivo estimation of ability to restore p53 function: A further consideration in this project is to determine whether members of this series have the ability to inhibit the growth of human cell lines that contain mutant p53 protein. This consideration was addressed with the use of compound 3, for which in vitro evidence has been obtained for ability to restore p53 function (Table 2) and for which pharmacological evidence has been obtained for biologically relevant plasma concentrations in vivo in the absence of significant side-effects (FIG. 1). Immunodeficient (rag 1) mice were maintained under standard conditions in accordance with institutional ethical guidelines. Cells from the NZM4 cell line (Marshall E S et al., Eur J Cancer 1994; 30A: 1370-1376) were grown in culture and harvested. Mice were injected subcutaneously with 10^7 cells and tumours allowed to grow to a diameter of approximately 5 mm. Mice received whole-body irradiation of 2 Gray and were then administered compound 3 by intraperitoneal injection immediately after, and 1 and 2 days following, irradiation. […] Control animals received no treatment or were irradiated in the absence of drug administration.
Tumour growth was recorded three times weekly by measuring the minor and major dimensions of the tumour and tumour volumes were calculated as 0.52 times (minor dimension)^2 times (major dimension). Tumour volumes were normalized to the initial volume and plotted versus time. FIG. 2 illustrates the growth curves for immunodeficient mice with NZM4 human tumour xenografts. Mice were either untreated (closed circles), treated with 2 Gray radiation alone (open circles) or treated with radiation combined with compound 3 (100 mg/kg per dose). […]

The test system of data set [5] is Saos-2 osteosarcoma cells. Particulars: cited from earlier work.
Data set [6] relates to A375.S2 melanoma (mutated at p53 position 249). Particulars: A375.S2 melanoma cells in nude mice; cited from earlier work.
In data set [7] the test system is DLD-1 colon carcinoma (mutated at p53 position 241). Particulars: DLD-1 colon carcinoma cells in nude mice; cited from earlier work.
The conditions of data set [8]: background statement; cited from earlier work.

Read-outs that look alike come from different tables or passages of the source.

As to `Cc1cccc2c(NCCCN(C)C)nc(-c3cc4ccccc4o3)nc12.Cl.Cl` [Compound 45, N^1-[2-(1-Benzofuran-2-yl)-8-methyl-4-quinazolinyl]-N^3,N^3-dimethyl-1,3-propanediamine dihydrochloride], the AC50 in [1] (Homo sapiens) is 5.8 µM. Also, in data set [1], the result was Active.

For `Cc1c(-c2nc(NCCCN(C)C)c3ccccc3n2)oc2ccccc12.Cl.Cl` [Compound 60, N^1,N^1-Dimethyl-N^3-[2-(3-methyl-1-benzofuran-2-yl)-4-quinazolinyl]-1,3-propanediamine dihydrochloride], the AC50 in data set [1] (Homo sapiens) came to 18 µM. For the same molecule, the result in [1] was Active.

As for `CN(C)CCCNc1nc(-c2cc3ccccc3o2)nc2cc(C(F)(F)F)ccc12.Cl.Cl` [Compound 35, N^1-[2-(1-Benzofuran-2-yl)-7-(trifluoromethyl)-4-quinazolinyl]-N^3,N^3-dimethyl-1,3-propanediamine dihydrochloride], in data set [1] (Homo sapiens), the AC50 is 3.4 µM. The result in data set [1] was Active.

Consider `CN(C)CCCNc1nc(-c2cc3ccccc3o2)nc2ccc([N+](=O)[O-])cc12` [Compound 29, N^1-[2-(1-Benzofuran-2-yl)-6-nitro-4-quinazolinyl]-N^3,N^3-dimethyl-1,3-propanediamine], for which the AC50 in data set [1] (Homo sapiens) was found to be 12 µM. Further, in [1], the result was Active.

In the case of `CN(C)CCCNc1nc(-c2cc3ccccc3o2)nc2ccc(N)cc12.Cl.Cl` [Compound 30], in data set [1], the result was Active.

Regarding `CN(C)CCCNc1nc(-c2cc3ccccc3s2)nc2ccccc12.Cl.Cl` [Compound 75, N^1-[2-(1-Benzothien-2-yl)-4-quinazolinyl]-N^3,N^3-dimethyl-1,3-propanediamine dihydrochloride], the AC50 in data set [1] (Homo sapiens) was 8 µM. The outcome in data set [1] was Active.

For `CN(C)CCCNc1nc(-c2cc3ccccc3o2)nc2ccccc12.Cl.Cl` [Compound 3, N^1-[2-(1-benzofuran-2-yl)-4-quinazolinyl]-N^3,N^3-dimethyl-1,3-propanediamine dihydrochloride], in data set [1] (Homo sapiens), the AC50 was found to be 8.5 µM. In addition, in data set [1], the result was Active. Also, the “ability to restore p53 function” value in data set [2] is “able to restore p53 function”. Moreover, in the data set on C57Bl mice (single intraperitoneal dose), the “maximum tolerated intraperitoneal single dose” value worked out at 100 mg/kg. For the same molecule, the “signs of toxicity (weight loss, ruffling of fur, behavioral changes)” value with C57Bl mice (single intraperitoneal dose of 100 mg/kg) is given as “No signs of toxicity”. Besides, the achieved plasma concentrations result in data set [3] is “comparable to the AC-50% value”. For the same molecule, the “time to reach three times the initial tumour volume” value in data set [4] (2 Gray radiation together with compound, 100 mg/kg per dose intraperitoneal on days 0, 1 and 2 after irradiation) is 17 days. The signs of toxicity entry in data set [4] (rag 1 mice, 2 Gray whole-body irradiation plus intraperitoneal compound immediately after and 1 and 2 days after) is reported as “No signs of toxicity”. Besides, in data set [4] (rag1 mice, drug alone at the same schedule, no irradiation), the “tumour growth rate with drug alone compared with mice not treated with drug” value was “identical rate”.

With `CN(C)CCCNc1cc(-c2cc3ccccc3o2)nc2ccccc12.Cl.Cl` [Compound 80, N^1-[2-(1-benzofuran-2-yl)-4-quinolinyl]-N^3,N^3-dimethyl-1,3-propanediamine dihydrochloride], the AC50 in [1] (Homo sapiens) was found to be 15 µM. In data set [1], the outcome was Active.

On to `Cc1ccc2c(N(C)CCC(C)N)nc(-c3cc4ccccc4o3)nc2c1C.Cl.Cl` (centres unmarked) [Compound 58, N^1-[2-(1-Benzofuran-2-yl)-7,8-dimethyl-4-quinazolinyl]-3,N-dimethyl-1,3-propanediamine dihydrochloride], for which, in [1] (Homo sapiens), the AC50 is 2.7 µM. Moreover, the outcome in data set [1] was Active.

As for `CN(C)CCCNc1nc(-c2cc3ccccc3o2)nc2ccc(N)cc12.Cl.Cl` [Compound 30, N^1-[2-(1-Benzofuran-2-yl)-N^4-[3-(dimethylamino)propyl]-4,6-quinazolinediaminedihydrochloride], the AC50 in data set [1] is 9.5 µM.

In the case of `COc1ccc(/C=C/c2nc(NCCCN(C)C)c3ccccc3n2)cc1` [(i)], the “ability of mutant p53 protein to induce the cellular p21 gene” value in data set [5] (Saos-2 osteosarcoma cells) was “restored the ability of mutant p53 protein to induce the cellular p21 gene”. The potency result in [5] (background statement, no test named) was “not very potent”. In addition, the “suppression of tumour growth” value in [6] and in data set [7] was “able to suppress the growth” in each case. For the same molecule, in data set [8], the chemical stability entry is recorded as “chemically unstable”.

As to `Cc1ccc2c(NCCC3CCCN3C)nc(-c3cc4ccccc4o3)nc2c1C.Cl.Cl` (centres unmarked) [Compound 79, 2-(1-Benzofuran-2-yl)-7,8-dimethyl-N-[2-(1-methyl-2-pyrrolidinyl)ethyl]-4-quinazolinamine dihydrochloride], the AC50 in data set [1] (Homo sapiens) was 7.5 µM. Besides, in [1], the outcome was Active.
